# Measurements reported in US20150105252A1, “SUBSTITUTED PYRAZOLES AS HERBICIDES” (E I DU PONT DE NEMOURS AND COMPANY, priority 2013, published 2015).
# Tests used:
# canarygrass = assay: Test D preemergence; type: in vivo, Phalaris minor; conditions: for Plant response rating, Canarygrass: Preemergence, scale 0 to 100
# Description: (§1) Seeds of plant species selected from bluegrass (annual bluegrass, Poa annua), blackgrass (Alopecurus myosuroides), canarygrass (littleseed canarygrass, Phalaris minor), chickweed (common chickweed, Stellaria media), galium (catchweed bedstraw, Galium aparine), bromegrass, downy (downy bromegrass, Bromus tectorum), field poppy (Papaver rhoeas), field violet (Viola arvensis), foxtail, green (green foxtail, Setaria viridis), deadnettle (henbit deadnettle, Lamium amplexicaule), ryegrass, Italian (Italian ryegrass, Lolium multiflorum), kochia (Kochia scoparia), lambsquarters (Chenopodium album), oilseed rape (Brassica napus), pigweed (redroot pigweed, Amaranthus retroflexus), chamomile (scentless chamomile, Matricaria inodora), speedwell (bird's-eye speedwell, Veronica persica), barley, spring (spring barley, Hordeum vulgare), wheat, spring (spring wheat, Triticum aestivum), buckwheat, wild (wild buckwheat, Polygonum convolvulus), mustard, wild (wild mustard, Sinapis arvensis), oat, wild (wild oat, Avena fatua), radish, wild (wild radish, Raphanus raphanistrum), windgrass (Apera spica-venti), Russian thistle (Salsola kali), barley, winter (winter barley, Hordeum vulgare), and wheat, winter (winter wheat, Triticum aestivum) were planted into a silt loam soil and treated preemergence with test chemicals formulated in a non-phytotoxic solvent mixture which included a surfactant.
# (§2) At the same time, these species were planted in pots containing Redi-Earth® planting medium (Scotts Company, 14111 Scottslawn Road, Marysville, Ohio 43041) comprising spaghnum peat moss, vermiculite, wetting agent and starter nutrients and treated with postemergence applications of the test chemicals formulated in the same manner. Plants ranged in height from 2 to 18 cm (1- to 4-leaf stage). Treated plants and controls were maintained in a controlled growth environment for 14 to 21 days after which time all species were compared to controls and visually evaluated. Plant response ratings, summarized in Table D, are based on a scale of 0 to 100 where 0 is no effect and 100 is complete control. A dash (-) response means no test result.
# oilseed rape [1] = assay: Test D preemergence; type: in vivo, Brassica napus; conditions: for Plant response rating, Oilseed Rape: Preemergence, scale 0 to 100
# Description: as §1, §2
# pigweed = assay: Test D preemergence; type: in vivo, Amaranthus retroflexus; conditions: for Plant response rating, Pigweed: Preemergence, scale 0 to 100
# Description: as §1, §2
# chamomile = assay: Test D postemergence; type: in vivo, Matricaria inodora; conditions: scale 0 to 100
# Description: as §1, §2
# barley, winter = assay: Test D preemergence; type: in vivo, Hordeum vulgare; conditions: for Plant response rating, Barley, Winter: Preemergence, scale 0 to 100
# Description: as §1, §2
# barley, spring = assay: Test D preemergence; type: in vivo, Hordeum vulgare; conditions: for Plant response rating, Barley, Spring: Preemergence, scale 0 to 100
# Description: as §1, §2
# chickweed = assay: Test D preemergence; type: in vivo, Stellaria media; conditions: for Plant response rating, Chickweed: Preemergence, scale 0 to 100
# Description: as §1, §2
# blackgrass = assay: Test D preemergence; type: in vivo, Alopecurus myosuroides; conditions: for Plant response rating, Blackgrass: Preemergence, scale 0 to 100
# Description: as §1, §2
# windgrass = assay: Test D preemergence; type: in vivo, Apera spica-venti; conditions: for Plant response rating, Windgrass: Preemergence, scale 0 to 100
# Description: as §1, §2
# oat, wild = assay: Test D postemergence; type: in vivo, Avena fatua; conditions: scale 0 to 100
# Description: as §1, §2
# buckwheat, wild = assay: Test D preemergence; type: in vivo, Polygonum convolvulus; conditions: for Plant response rating, Buckwheat, Wild: Preemergence, scale 0 to 100
# Description: as §1, §2
# ryegrass, Italian [2] = assay: Test D postemergence; type: in vivo, Lolium multiflorum; conditions: scale 0 to 100
# Description: as §1, §2
# lambsquarters = assay: Test D preemergence; type: in vivo, Chenopodium album; conditions: for Plant response rating, Lambsquarters: Preemergence, scale 0 to 100
# Description: as §1, §2
# wheat, spring = assay: Test D preemergence; type: in vivo, Triticum aestivum; conditions: for Plant response rating, Wheat, Spring: Preemergence, scale 0 to 100
# Description: as §1, §2
# wheat, winter = assay: Test D preemergence; type: in vivo, Triticum aestivum; conditions: for Plant response rating, Wheat, Winter: Preemergence, scale 0 to 100
# Description: as §1, §2
# ryegrass, Italian [3] = assay: Test D preemergence; type: in vivo, Lolium multiflorum; conditions: for Plant response rating, Ryegrass, Italian: Preemergence, scale 0 to 100
# Description: as §1, §2
# mustard, wild = assay: Test D postemergence; type: in vivo, Sinapis arvensis; conditions: scale 0 to 100
# Description: as §1, §2
# field poppy = assay: Test D preemergence; type: in vivo, Papaver rhoeas; conditions: for Plant response rating, Field Poppy: Preemergence, scale 0 to 100
# Description: as §1, §2
# oilseed rape [4] = assay: Test D postemergence; type: in vivo, Brassica napus; conditions: scale 0 to 100
# Description: as §1, §2
# [5] = 16 g ai/ha, taken as preemergence
structure (smiles),measurement,setting,value
Cc1cc(C(=O)NCC(F)(F)F)nn1Cc1ccnc(C(F)(F)F)c1 [Compound 74],"Plant response rating (scale 0 to 100), Canarygrass",canarygrass; [5],0
same,"Plant response rating, Canarygrass",canarygrass; 31 g ai/ha,0
same,"Plant response rating, Canarygrass",canarygrass; 62 g ai/ha,0
same,"Plant response rating, Canarygrass",canarygrass; 125 g ai/ha,5
same,"Plant response rating (scale 0 to 100), Oilseed Rape",oilseed rape [1]; [5],5
same,"Plant response rating, Oilseed Rape",oilseed rape [1]; 31 g ai/ha,15
same,"Plant response rating, Oilseed Rape",oilseed rape [1]; 62 g ai/ha,40
same,"Plant response rating, Oilseed Rape",oilseed rape [1]; 125 g ai/ha,45
same,"Plant response rating (scale 0 to 100), Pigweed",pigweed; [5],15
same,"Plant response rating, Pigweed",pigweed; 31 g ai/ha,30
same,"Plant response rating, Pigweed",pigweed; 62 g ai/ha,70
same,"Plant response rating, Pigweed",pigweed; 125 g ai/ha,100
same,"Plant response rating, Chamomile","chamomile; Postemergence, 16 g ai/ha",15
same,Chamomile plant response rating,"chamomile; Postemergence, 31 g ai/ha",15
same,Chamomile plant response rating,"chamomile; Postemergence, 125 g ai/ha",50
same,Chamomile plant response rating,"chamomile; postemergence, 62 g ai/ha",20
same,"Plant response rating (scale 0 to 100), Barley, Winter","barley, winter; [5]",0
same,"Plant response rating, Barley, Winter","barley, winter; 31 g ai/ha",0
same,"Plant response rating, Barley, Winter","barley, winter; 62 g ai/ha",0
same,"Plant response rating, Barley, Winter","barley, winter; 125 g ai/ha",0
same,"Plant response rating (scale 0 to 100), Barley, Spring","barley, spring; 16 g ai/ha, taken as preemergence, 0 = no effect, 100 = complete control",0
same,"Plant response rating, Barley, Spring","barley, spring; 31 g ai/ha",0
same,"Plant response rating, Barley, Spring","barley, spring; 62 g ai/ha",0
same,"Plant response rating, Barley, Spring","barley, spring; 125 g ai/ha",5
same,"Plant response rating (scale 0 to 100), Chickweed",chickweed; [5],20
same,"Plant response rating, Chickweed",chickweed; 31 g ai/ha,70
same,"Plant response rating, Chickweed",chickweed; 62 g ai/ha,100
same,"Plant response rating, Chickweed",chickweed; 125 g ai/ha,100
same,"Plant response rating (scale 0 to 100), Blackgrass",blackgrass; [5],0
same,"Plant response rating, Blackgrass",blackgrass; 31 g ai/ha,0
same,"Plant response rating, Blackgrass",blackgrass; 62 g ai/ha,10
same,"Plant response rating, Blackgrass",blackgrass; 125 g ai/ha,15
same,"Plant response rating (scale 0 to 100), Windgrass",windgrass; [5],0
same,"Plant response rating, Windgrass",windgrass; 31 g ai/ha,0
same,"Plant response rating, Windgrass",windgrass; 62 g ai/ha,25
same,"Plant response rating, Windgrass",windgrass; 125 g ai/ha,35
same,"Plant response rating, Oat, Wild","oat, wild; Postemergence, 16 g ai/ha",0
same,"Oat, Wild plant response rating","oat, wild; Postemergence, 31 g ai/ha",5
same,"Oat, Wild plant response rating","oat, wild; Postemergence, 125 g ai/ha",5
same,"Oat, Wild plant response rating","oat, wild; postemergence, 62 g ai/ha",5
same,"Plant response rating (scale 0 to 100), Buckwheat, Wild","buckwheat, wild; [5]",25
same,"Plant response rating, Buckwheat, Wild","buckwheat, wild; 31 g ai/ha",35
same,"Plant response rating, Buckwheat, Wild","buckwheat, wild; 62 g ai/ha",45
same,"Plant response rating, Buckwheat, Wild","buckwheat, wild; 125 g ai/ha",65
same,"Plant response rating, Ryegrass, Italian","ryegrass, Italian [2]; Postemergence, 16 g ai/ha",0
same,"Ryegrass, Italian plant response rating","ryegrass, Italian [2]; Postemergence, 31 g ai/ha",5
same,"Ryegrass, Italian plant response rating","ryegrass, Italian [2]; Postemergence, 125 g ai/ha",10
same,"Ryegrass, Italian plant response rating","ryegrass, Italian [2]; postemergence, 62 g ai/ha",5
same,"Plant response rating (scale 0 to 100), Lambsquarters",lambsquarters; [5],20
same,"Plant response rating, Lambsquarters",lambsquarters; 31 g ai/ha,50
same,"Plant response rating, Lambsquarters",lambsquarters; 62 g ai/ha,20
same,"Plant response rating, Lambsquarters",lambsquarters; 125 g ai/ha,85
same,"Plant response rating (scale 0 to 100), Wheat, Spring","wheat, spring; [5]",0
same,"Plant response rating, Wheat, Spring","wheat, spring; 31 g ai/ha",0
same,"Plant response rating, Wheat, Spring","wheat, spring; 62 g ai/ha",0
same,"Plant response rating, Wheat, Spring","wheat, spring; 125 g ai/ha",0
same,"Plant response rating (scale 0 to 100), Wheat, Winter","wheat, winter; [5]",0
same,"Plant response rating, Wheat, Winter","wheat, winter; 31 g ai/ha",0
same,"Plant response rating, Wheat, Winter","wheat, winter; 62 g ai/ha",0
same,"Plant response rating, Wheat, Winter","wheat, winter; 125 g ai/ha",5
same,"Plant response rating (scale 0 to 100), Ryegrass, Italian","ryegrass, Italian [3]; [5]",0
same,"Plant response rating, Ryegrass, Italian","ryegrass, Italian [3]; 31 g ai/ha",0
same,"Plant response rating, Ryegrass, Italian","ryegrass, Italian [3]; 62 g ai/ha",0
same,"Plant response rating, Ryegrass, Italian","ryegrass, Italian [3]; 125 g ai/ha",0
same,"Plant response rating, Mustard, Wild","mustard, wild; Postemergence, 16 g ai/ha",20
same,"Mustard, Wild plant response rating","mustard, wild; Postemergence, 31 g ai/ha",30
same,"Mustard, Wild plant response rating","mustard, wild; Postemergence, 125 g ai/ha",55
same,"Mustard, Wild plant response rating","mustard, wild; postemergence, 62 g ai/ha",30
same,"Plant response rating (scale 0 to 100), Field Poppy",field poppy; [5],50
same,"Plant response rating, Field Poppy",field poppy; 31 g ai/ha,80
same,"Plant response rating, Field Poppy",field poppy; 62 g ai/ha,95
same,"Plant response rating, Field Poppy",field poppy; 125 g ai/ha,100
same,"Plant response rating, Oilseed Rape","oilseed rape [4]; Postemergence, 16 g ai/ha",15
same,Oilseed Rape plant response rating,"oilseed rape [4]; Postemergence, 31 g ai/ha",20
same,Oilseed Rape plant response rating,"oilseed rape [4]; Postemergence, 125 g ai/ha",35
same,Oilseed Rape plant response rating,"oilseed rape [4]; postemergence, 62 g ai/ha",25
